Literature values in patent US20060159622A1, “Pharmacodynamic assay for inhibitors of 11-beta-hydroxysteroid dehydrogenase activity in animal tissues” (priority 2003, published 2006).

Tested on: HSD
Conditions: normal human volunteers

SMILES: CC1(C)[C@@H](OC(=O)CCC(=O)O)CC[C@]2(C)[C@H]3C(=O)C=C4[C@@H]5C[C@@](C)(C(=O)O)CC[C@]5(C)CC[C@@]4(C)[C@]3(C)CC[C@@H]12 [carbenoxolone]
- insulin sensitivity: increased insulin sensitivity
